The source of these data is the METLIN SMRT retention time set (Domingo-Almenara et al. 2019).

The nature of this data set: gradient 5% acetonitrile 3 min, to 50% in 2 min, to 85% in 15 min, held 3 min, 100 µL/min. The note with it: column: Zorbax Extend-C18 2.1 x 50 mm; eluents: water / acetonitrile, 0.1% formic acid. In short, it runs like this: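 Pure standards were run in mixtures of ~100 molecules by HPLC coupled to a quadrupole time-of-flight mass spectrometer. The column was a Zorbax Extend-C18 (2.1 × 50 mm, 1.8 μm) at 100 μL/min, with water and acetonitrile each containing 0.1% formic acid, in positive and negative ionization mode. Dead and dwell volumes were 40 μL and 900 μL. Retention time was taken from computationally picked adduct peaks, each manually inspected, with data collected over 3 months.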
Molecule `Cc1noc(-c2ccc(=O)n(Cc3cccc(C(F)(F)F)c3)c2)n1` yielded an RP-LC retention time of 806 s.

The molecule `COc1ccccc1CNC(=O)Cn1nc2c(N3CCSCC3)nccn2c1=O` yielded an RP-LC retention time of 767 s.

As to `O=C(Cn1ncc2c3ccccc3n(Cc3ccccc3)c2c1=O)N1CCN(c2ccccn2)CC1`, the RP-LC retention time was determined as 693 s.

On to `COCCN1CCC(N2CCN(C(=O)c3ccsc3)CC2)C1=O` (stereo not drawn), for which the RP-LC retention time is 515 s.

For `CN(C)C[C@@H]1CN(c2ncccn2)C[C@H]1NC(=O)c1ccc2ccccc2n1`, the RP-LC retention time was found to be 595 s.

The molecule `CC1CN(Cc2nc3c(c(=O)n(C)c(=O)n3C)n2CC(=O)c2ccccc2)CC(C)O1` (stereo not drawn) registered an RP-LC retention time of 624 s.

Take `CCNC(=O)c1cn(-c2ccc(SCC(=O)Nc3ccc4c(c3)OCCO4)nn2)cn1`: the RP-LC retention time came out at 637 s.

In turn, `Cc1cc(C)cc(NC(=O)N2CCN(c3ccc(=O)n(-c4ccccc4)n3)CC2)c1` registered an RP-LC retention time of 832 s.

The molecule `O=C(NCCCc1ccccc1)C1CCCN(c2ccc(=O)n(-c3cccc(Cl)c3)n2)C1` (stereo not drawn) registered an RP-LC retention time of 926 s.

`Brc1ccc(-c2nc(-c3ccn4cnnc4c3)no2)cc1` had an RP-LC retention time of 929 s.

With `COc1ccc(-n2c(=O)c3sccc3n(Cc3nc(-c4cccc(C)c4)no3)c2=O)cc1`, the RP-LC retention time came to 1020 s.

`Cc1cc(NCc2ccccn2)n2ncnc2n1`: the RP-LC retention time was 562 s.

The molecule `Cn1nccc1C(=O)N1CCC(Cc2nc(C3CC3)n[nH]2)C1` (stereo not drawn) displayed an RP-LC retention time of 578 s.

`CCn1cc(C(CNC(=O)Nc2cccc(SC)c2)c2cccnc2)c2ccccc21` (stereo not drawn) returned an RP-LC retention time of 786 s.

Take `Cc1ccn2c(NC(=O)c3cccc(Cl)c3)c(-c3ccccc3)nc2c1`: the RP-LC retention time turned out to be 682 s.

In the case of `COc1ccc(CN2CCc3nc(N4CCN(c5ncccn5)CC4)ncc3C2)cc1OC`, the RP-LC retention time worked out at 626 s.

Molecule `COc1ccc(S(=O)(=O)N2CC3CN(C(=O)C(C)Oc4ccccc4)CC(C2)O3)cc1` (stereo not drawn) had an RP-LC retention time of 844 s.

Turning to `COCc1nncn1C1CCN(S(=O)(=O)c2cccc(F)c2)CC1`, the RP-LC retention time is 693 s.

`COc1ccccc1-c1nnc(-c2ccc(Cl)c(S(=O)(=O)N3CCC(C)CC3)c2)o1` showed an RP-LC retention time of 1190 s.

Turning to `CCc1nnc(-c2cccnc2N2CCN(C(=O)Nc3cc(Cl)cc(Cl)c3)CC2)o1`, the RP-LC retention time is 968 s.

Consider `COC(=O)c1cccc(NC(=O)N(C)CCc2noc(C3CCCCC3)n2)c1`, for which the RP-LC retention time stood at 937 s.

`Cc1cccc(-n2c(=O)c3c(cc(C)n3C)n(CC(=O)Nc3ccccc3)c2=O)c1` had an RP-LC retention time of 852 s.

Regarding `CC(=O)c1ccc(NC(=O)N2C[C@@H]3C[C@H](NC(=O)c4cccnc4)[C@H]2C3)cc1`, the RP-LC retention time was 627 s.

For `Cc1cc(C)cc(Oc2nccn3c(=O)n(CC(=O)NCc4ccccc4)nc23)c1`, the RP-LC retention time was 860 s.

The molecule `O=C(NCCNC(=O)c1ccc2c(c1)OCO2)c1ccc(NC(=O)C2CC2)cc1` came in with an RP-LC retention time of 650 s.

Turning to `CC1CCc2nc3ncn(CC(=O)NCCc4ccc(Cl)cc4)c(=O)c3cc2C1` (stereo not drawn), the RP-LC retention time was 756 s.

With `Fc1ccc(-c2noc(Cc3nnc(-c4cccc(Br)c4)o3)n2)cc1`, the RP-LC retention time worked out at 1120 s.

Take `CC(=O)OC[C@]12CCC(C)=C[C@H]1O[C@@H]1[C@H](O)[C@@H](OC(C)=O)[C@@]2(C)[C@@]12CO2`: the RP-LC retention time was determined as 750 s.

Molecule `Cc1ccnn1-c1ccc(SCC(=O)Nc2ccc(F)cc2F)nn1` showed an RP-LC retention time of 893 s.

As to `COc1cccc(CN2CCc3nc(N4CCN(c5ccccc5)CC4)ncc3C2)c1OC`, the RP-LC retention time was found to be 762 s.

`COc1cccc(NS(=O)(=O)c2ccc3c(c2)C(=O)N(C)c2ncccc2O3)c1` gave an RP-LC retention time of 889 s.

With `CC1=C(c2ccccc2)S(=O)(=O)N=C1N1CCCN(C(=O)c2ccccn2)CC1`, the RP-LC retention time was 693 s.

`Clc1ccc(-c2nc(NC3CCCC3)c3ccccc3n2)cc1` came in with an RP-LC retention time of 887 s.

`NC(N)=NCCC[C@H](NC(=O)c1sccc1NS(=O)(=O)c1cccc2nsnc12)C(=O)O` returned an RP-LC retention time of 685 s.

`Cc1ccc(CNC(=O)c2ccc3c(c2)N(C)C(=O)c2ccccc2O3)cc1` registered an RP-LC retention time of 931 s.

With `CC(=O)NCc1nc(-c2ccc3oc(-c4ccccc4)nc3c2)no1`, the RP-LC retention time was determined as 805 s.

`Cc1ccc(F)cc1NC(=O)c1cc(C2CC2)n2nccc2n1`: the RP-LC retention time stood at 1140 s.

Turning to `O=C(NC1(c2nc(-c3ccccn3)no2)CCCCC1)c1ccccc1`, the RP-LC retention time was 848 s.

With `CSc1nnc(-c2nn(C)c3c2CN(C(=O)c2ccccc2)CC3)n1C`, the RP-LC retention time was found to be 680 s.

On to `CC(C)c1nccn1C1CN(S(=O)(=O)c2cccc(F)c2)C1`, for which the RP-LC retention time stood at 640 s.

As for `O=C1CCC2(CNC(=O)c3n[nH]c(=O)c4ccccc34)CCCC=C2N1` (stereo not drawn), the RP-LC retention time was found to be 634 s.

The molecule `CN(C)CCNc1oc(-c2ccc(COc3ccccc3)o2)nc1C#N` yielded an RP-LC retention time of 684 s.

As to `Cc1ccccc1CNS(=O)(=O)c1ccc(-c2c(C)noc2C)cc1`, the RP-LC retention time amounted to 959 s.

`O=C(Nc1ccc2scnc2c1)c1ccc(Cl)cc1Cl` registered an RP-LC retention time of 801 s.

Molecule `O=C(NC1CCN(Cc2ccccc2)CC1)C1CCCN(c2ncc(-c3ccccc3)cn2)C1` (stereo not drawn) came in with an RP-LC retention time of 720 s.

`O=C(NCC1CCCO1)C1CCN(C(=O)C2Sc3ccccc3NC2=O)CC1` (stereo not drawn): the RP-LC retention time turned out to be 642 s.

Molecule `Cn1nccc1-c1cccc(-c2noc(Cc3ccccc3F)n2)c1` had an RP-LC retention time of 1050 s.

`Cc1cccc(CNC(=O)CN2C(=O)CCc3cc(S(=O)(=O)N4CCCCC4C)ccc32)c1` (stereo not drawn) had an RP-LC retention time of 998 s.

With `COc1ccc(-n2ccc(=O)c(-c3nc(-c4ccc(F)c(Cl)c4)no3)n2)cc1`, the RP-LC retention time was 966 s.

`Cc1noc(/C=C\c2ccc(S(=O)(=O)N3CCOCC3)cc2)c1NC(=O)C1CC1` showed an RP-LC retention time of 777 s.

In the case of `CCc1nnc(NC(=O)c2ccc(N3C(=O)CCC3=O)cc2)s1`, the RP-LC retention time was found to be 627 s.

Take `Cc1nnc(-c2cccnc2N2CCN(C(=O)c3ccsc3)CC2)o1`: the RP-LC retention time is 675 s.

`O=C(NCc1cccc(Br)c1)C1CCN(c2cnc3nccnc3c2)CC1` had an RP-LC retention time of 726 s.

Take `O=C(NCc1ccccn1)c1csc(Nc2ccc(OC(F)(F)F)cc2)n1`: the RP-LC retention time came out at 674 s.

As for `O=C(NCC1CCN(C(=O)c2cc3ccccc3o2)CC1)C(=O)Nc1cccnc1`, the RP-LC retention time stood at 601 s.

For the molecule `O=C(Cn1cnc2nc(N3CCC(C(=O)NC4CC4)CC3)sc2c1=O)NCc1cccs1`, the RP-LC retention time was 618 s.

`COC(=O)C1CCN([C@H]2CS(=O)(=O)C[C@@H]2S(=O)(=O)c2ccc(Cl)cc2)CC1`: the RP-LC retention time stood at 856 s.

For the molecule `Cc1ccccc1CNC(=O)C1CCCN(c2nnc(C)c3c(C)n(-c4ccc(Cl)cc4)nc23)C1` (stereo not drawn), the RP-LC retention time came out at 784 s.

Consider `COc1ccc(-c2nc3cnccn3c2Nc2cccc(Cl)c2)cc1OC`, for which the RP-LC retention time turned out to be 817 s.

Turning to `O=C(Nc1ccc(N2CCN(C3CCCC3)C2=O)nc1)c1ccc(F)c(F)c1`, the RP-LC retention time amounted to 916 s.

Consider `Cc1c(-c2ccnc(N3CCOCC3)n2)cnc2nc(-c3ccccc3)nn12`, for which the RP-LC retention time amounted to 885 s.

The molecule `O=C(Nc1ccccc1F)C1CCCN(S(=O)(=O)c2c[nH]c(C(=O)N3CCCCCC3)c2)C1` (stereo not drawn) yielded an RP-LC retention time of 880 s.

`CC(C)N1C(=O)C(C)(C(=O)Nc2cccc(F)c2)Oc2cccnc21` (stereo not drawn): the RP-LC retention time came out at 1020 s.

`Cc1ccc(-c2ccc(-n3nc(C)c(S(=O)(=O)NCC(C)C)c3C)nn2)cc1` had an RP-LC retention time of 1160 s.

`CCc1csc(-c2ccc(N3CCN(C(=O)c4ccc(C#N)cc4F)CC3)nc2)n1` returned an RP-LC retention time of 929 s.

For the molecule `Cc1cc(C)cc(NC(=O)Cn2cnc(C)c(C)c2=O)c1`, the RP-LC retention time was found to be 710 s.

`CCC(C)NC(=O)NCCc1nc2cccnc2n1Cc1ccccc1` (stereo not drawn) registered an RP-LC retention time of 685 s.

Consider `CCc1ccc(NC(=O)Cn2nc(N3CCC(C)CC3)c3ccccc3c2=O)cc1`, for which the RP-LC retention time was determined as 1100 s.

For `Cc1ccc(NC(=O)C2CCN(S(=O)(=O)c3cn(C(C)C)cn3)CC2)nc1`, the RP-LC retention time was 626 s.

In turn, `CCc1ccc(-c2cn3cc(C(=O)N(CC)CC)ccc3n2)cc1` had an RP-LC retention time of 675 s.

`COc1ccc(N2CC(c3nnc(NC(=O)COc4ccc(C)cc4)o3)CC2=O)cc1` (stereo not drawn): the RP-LC retention time turned out to be 742 s.

On to `CCOC(=O)C1CCN(c2ncccc2-c2nnc(-c3ccccc3)o2)CC1`, for which the RP-LC retention time was determined as 1010 s.

`COC(=O)c1cc2n(n1)CC(C)(C(=O)NC1CCCC1)N(c1ccc(F)cc1C)C2=O` (stereo not drawn) showed an RP-LC retention time of 845 s.

As to `O=C(Nc1cnn(-c2ncc(N3CCSCC3)cn2)c1)NC1CCCCC1`, the RP-LC retention time was 759 s.

The molecule `CN(C)c1ccc(CN2C(=O)CN(S(C)(=O)=O)CC2(C)C(=O)NCc2ccccc2)cc1` (stereo not drawn) showed an RP-LC retention time of 622 s.

For the molecule `COc1cccc(N2CCN(c3ccnc(SCC(=O)Nc4ccccc4F)n3)CC2)c1`, the RP-LC retention time amounted to 789 s.

With `Cc1ncc([N+](=O)[O-])n1CC(O)CCl` (stereo not drawn), the RP-LC retention time was 677 s.

In turn, `O=C(C1CCCN(c2nccnc2Sc2ccccc2)C1)N1CCN(c2cccc(Cl)c2)CC1` (stereo not drawn) yielded an RP-LC retention time of 1260 s.
